{"source": "patent US20260053764A1", "about": "“COMPOSITION FOR PREVENTING DETERIORATION IN COGNITIVE FUNCTION AND/OR IMPROVING COGNITIVE FUNCTION” (PHARMA FOODS INTERNATIONAL CO., LTD., priority 2020, published 2026)", "system": "IGF-1 (insulin-like growth factor-1)", "experiment": "Blood test, IGF-1 concentration in blood", "type": "in vivo, human", "conditions": "200 mg ingestion test", "text": "While there are still many unclear points regarding the biochemical mechanism regarding reduction in cognitive function, the IGF-1 (insulin-like growth factor-1) level in blood is known to be reduced by aging. […] In one embodiment of the present disclosure, the composition of the present disclosure can be a composition for suppressing reduction in cognitive function and/or improving the cognitive function through elevation of the IGF-1 concentration in blood.\nAmong the 120 subjects in Example 1, a total of six blood tests were carried out to the total of 60 subjects who participated in test, wherein blood tests were carried out upon screening, before starting test food ingestion, after four weeks of ingestion, after eight weeks of ingestion, after twelve weeks of ingestion and four weeks after ending ingestion, as shown with ● in the test schedule in Table 1."}
{"smiles": "NCCCC(=O)O", "note": "[GABA, γ-aminobutyric acid]", "values": [{"measurement": "IGF-1", "setting": "blood, before ingestion, mean ± SD", "result": "71.0 ± 21.5", "unit": "ng/mL"}, {"measurement": "IGF-1 in the group that ingested GABA", "setting": "vs. before ingestion", "result": "tendency of increase"}]}
